# Results as given in patent publication US20200046737A1, “METHODS FOR TREATING CANCER, AND COMPOSITIONS THEREFOR” (Notable Labs, Inc., priority 2018, published 2020).
# How the values were obtained:
# CD126 = assay: Ex vivo flow cytometry priming assay, CD126 surface marker expression on AML patient samples; assay type: cell-based, human; conditions: AML Patient 3
# Method: (§1) 12 primary AML patient samples were assayed for priming response using a High-Throughput Phenotypic Screening Platform. Samples were treated with 70 priming compounds (either FDA approved compounds or compounds in clinical development). […] This process was repeated on bone marrow aspirate and peripheral blood from 3 healthy donors.
# CD24 = assay: Ex vivo flow cytometry priming assay, CD24 surface marker expression on AML patient samples; assay type: cell-based, human; conditions: AML Patient 3
# Method: as §1
# CD38 [1] = assay: Clinical validation by trial sites, CD38 expression on leukemic blasts of patients on drug; assay type: in vivo, human; conditions: before enrollment versus beginning of cycle two
# Excerpt: (§2) The ex vivo detection of CD38 upregulation using the 72-hour ex vivo assay was clinically validated by trial sites, which compared CD38 expression on leukemic blasts before enrollment and at the beginning of cycle two on SY-1425.
# CD38 [2] = assay: 72-hour ex vivo assay, CD38 upregulation in MDS and AML cancer patient samples; assay type: cell-based, human; conditions: subset of MDS and AML cancer patient samples
# Excerpt: as §2
# CD15 = assay: Ex vivo flow cytometry priming assay, CD15 surface marker expression on AML patient samples; assay type: cell-based, human; conditions: FIG. 3, three-day incubation
# PD-L1 = assay: Ex vivo flow cytometry priming-tuning assay, PD-L1 expression on AML patient samples; assay type: cell-based, human; conditions: FIG. 3, three-day incubation
compound,measurement,setting,value
CC1=C(/C=C/C(C)=C/C=C/C(C)=C/C(=O)O)C(C)(C)CCC1 [Tretinoin],expression of CD126,CD126,little effect
same,expression of CD24,CD24,little effect
CC1(C)CCC(C)(C)c2cc(NC(=O)c3ccc(C(=O)O)cc3)ccc21 [SY-1425],CD38 expression on leukemic blasts,CD38 [1],upregulated
same,CD38 upregulation after exposure,CD38 [2],upregulation
Cc1c(-c2ccc(-c3ccccc3F)cc2)nc2ccc(F)cc2c1C(=O)O [Brequinar Sodium],CD15 expression,CD15,increase
same,PD-L1 expression,PD-L1,increase
